From patent US8912144B2, “Method for treating stroke via administration of NEP1-40 and inosine” (Children's Medical Center Corporation, priority 2003, dated 2014)

System: corticospinal neurons (CSNs/CSMNs)
Assay: Laser-capture microdissection and Illumina microarray gene expression in corticospinal neurons contralateral to stroke
Format: in vivo, rat
Method: In a separate group of animals (n=20), layer V pyramidal cells of the sensorimotor cortex were retrogradely labeled by injecting Alexa-Fluor-488-conjugated cholera toxin B subunit (CTB; 300 U/μl in sterile saline) into the cervical spinal cord. For this, animals were anesthetized with a combination of ketamine and Domitor (medetomidine) and a laminectomy was performed at the cervical level of the spinal cord (C2-C4). CTB was stereotaxically delivered into four sites lateral to the corticospinal tract. Injections (1.3 μl) were spaced 1 mm apart on the rostro-caudal axis, and were made 0.5 mm to the left and right of the midline. After allowing two weeks for transport of the tracer, we performed either sham surgery with no treatment (n=6) or stroke surgery combined with saline (n=3) or inosine (n=4) treatment as described above. Seven days later, animals were decapitated under transient gas anesthesia, brains were removed and rinsed in cold RPMI medium, and a tissue block containing the sensorimotor cortex was dissected and placed in OCT Tissue Tek Medium (Sakura Finetek USA Inc., CA) on dry ice within five minutes of death. Ten μm sections were cut onto precleaned Gold Seal RITE-ON glass slides (Gold Seal Prod-ucts, Portsmouth, N.H.), placed on dry ice, and rapidly stored at −80° C.
Slide-mounted sections were thawed and dehydrated in RNAse-free ethanol gradients and xylene. Retro-gradely labeled, fluorescent cortical pyramidal cells in the undamaged hemisphere were individually captured using the Arcturus VERITAS system. ≧500 cells were collected from each animal and stored in Arcturus extraction buffer at −80° C. Total RNA was extracted from cells using the Micro-to-Midi TotalRNA Purification System (Invitrogen, Carlsbad Calif.) and double-amplified using the TargetAmp 2-Round Aminoallyl-aRNA Amplification kit 1.0 (Epicentre, Madison, Wis.). Amplified RNA was checked for average fragment length using the Agilent RNA 6000 Nano LabChip kit (Agilent Technologies, Santa Clara, Calif.) and then biotinylated and hybridized (1 μg) on Illumina RatRef-12 Expression BeadChip arrays (Illumina, San Diego Calif.), querying the expression of >22,000 RefSeq-curated rat transcripts. Results were obtained from a total of 15 samples representing 6 untreated controls, 4 animals with stroke treated with saline and 5 animals with stroke treated with inosine. Slides were processed and scanned with Illumina BeadStation platform according to the manufacturer protocol.
Raw data was analyzed using Bioconductor packages (www.bioconductor.org, (Gentleman et al., 2004)). Low level quality-control analysis was performed using inter-array Pearson correlation and clustering based on variance. Two arrays (1 saline and 1 inosine-treated) were outliers and were excluded from the analysis. Data was normalized using quantile normalization, and analysis of differential expression was performed using a linear model fitting (LIMMA package, (Smyth, 2005). Differentially expressed genes were classified according to gene ontology using Bioconductor packages and online tools (DAVID, http://david.abcc.ncifcrf.gov/). Pathway analysis was carried out using Ingenuity Pathway Analysis (Ingenuity Systems, www.ingenuity.com).

OC[C@H]1O[C@@H](n2cnc3c(O)ncnc32)[C@H](O)[C@@H]1O [inosine]
Fold-Induction Stroke, ino vs. cntrl, Hbld2 (ILMN_57967): 0.54
Signal Intensity, Hbld2 (ILMN_57967, inosine after stroke): 1095
Fold-Induction Stroke, ino vs. cntrl, LOC298490 (ILMN_58032): 0.62
Signal Intensity, LOC298490 (ILMN_58032, inosine after stroke): 1407
Fold-induction CSMNs: Lcp1 (ILMN_58058, over and above inosine's effect of decreasing stroke-induced changes): 2.68 fold
Fold-Induction Stroke, ino vs. cntrl, LOC290549 (ILMN_58092): 0.54
Signal Intensity, LOC290549 (ILMN_58092, inosine after stroke): 1870
Fold-Induction Stroke, ino vs. cntrl, Rhob (ILMN_58180): 0.52
Signal Intensity, Rhob (ILMN_58180, inosine after stroke): 276
Fold-Induction Stroke, ino vs. cntrl, Gdap2 (ILMN_58290): 0.58
Signal Intensity, Gdap2 (ILMN_58290, inosine after stroke): 319
Fold-Induction, complement cascade gene C1qa (ILMN_58496, LCM-captured CSMNs contralateral a stroke): 2.03 fold
Fold-induction CSMNs: C1qa (ILMN_58496, over and above inosine's effect of decreasing stroke-induced changes): 1.84 fold
Fold-Induction Stroke, ino vs. cntrl, Rab11a (ILMN_58550): 0.56
Signal Intensity, Rab11a (ILMN_58550, inosine after stroke): 1039
Fold-Induction Stroke, ino vs. cntrl, LOC499088 (ILMN_58730): 0.59
Signal Intensity, LOC499088 (ILMN_58730, inosine after stroke): 1089
Fold-Induction Stroke, ino vs. cntrl, Dars (ILMN_58816): 0.76
Signal Intensity, Dars (ILMN_58816, inosine after stroke): 349
Fold-Induction, complement cascade gene Adn ((P) adipsin) (ILMN_58846, LCM-captured CSMNs contralateral a stroke): 5.81 fold
Fold-Induction Stroke, ino vs. cntrl, Emb (ILMN_58897): 0.77
Signal Intensity, Emb (ILMN_58897, inosine after stroke): 425
Fold-Induction Stroke, ino vs. cntrl, Kifap3 (ILMN_59040): 0.64
Signal Intensity, Kifap3 (ILMN_59040, inosine after stroke): 270
Fold-induction CSMNs: Npc2 (ILMN_59161, over and above inosine's effect of decreasing stroke-induced changes): 1.73 fold
Fold-Induction Stroke, ino vs. cntrl, Plcb1 (ILMN_59359): 0.59
Signal Intensity, Plcb1 (ILMN_59359, inosine after stroke): 512
Fold-induction CSMNs: Emp3 (ILMN_59412, over and above inosine's effect of decreasing stroke-induced changes): 2.20 fold
Fold-Induction Stroke, ino vs. cntrl, LOC291762 (ILMN_59483): 0.52
Signal Intensity, LOC291762 (ILMN_59483, inosine after stroke): 673
Fold-Induction Stroke, ino vs. cntrl, LOC315840 (ILMN_59546): 0.85
Signal Intensity, LOC315840 (ILMN_59546, inosine after stroke): 3649
Fold-Induction, complement cascade gene C4-2 (ILMN_59751, LCM-captured CSMNs contralateral a stroke): 2.15 fold
Fold-induction CSMNs: Ppp1r14b (ILMN_59774, over and above inosine's effect of decreasing stroke-induced changes): 1.74 fold
Fold-Induction Stroke, ino vs. cntrl, Bcas2 (ILMN_59789): 0.91
Signal Intensity, Bcas2 (ILMN_59789, inosine after stroke): 1103
Fold-Induction Stroke, ino vs. cntrl, D123 (ILMN_59956): 0.76
Signal Intensity, D123 (ILMN_59956, inosine after stroke): 607
Fold-Induction Stroke, ino vs. cntrl, LOC497728 (ILMN_59964): 0.56
Signal Intensity, LOC497728 (ILMN_59964, inosine after stroke): 1366
Fold-induction CSMNs: Cd68 (ILMN_60003, over and above inosine's effect of decreasing stroke-induced changes): 2.62 fold
Fold-Induction Stroke, ino vs. cntrl, Tspan2 (ILMN_60033): 0.54
Signal Intensity, Tspan2 (ILMN_60033, inosine after stroke): 1363
Fold-induction CSMNs: Lgals3bp (ILMN_60037, over and above inosine's effect of decreasing stroke-induced changes): 2.60 fold
Fold-Induction, complement cascade gene Serping1 (ILMN_60046, LCM-captured CSMNs contralateral a stroke): 2.20 fold
Fold-induction CSMNs: Serping1 (ILMN_60046, over and above inosine's effect of decreasing stroke-induced changes): 2.93 fold
Fold-Induction Stroke, ino vs. cntrl, Pgk1 (ILMN_60123): 0.65
Signal Intensity, Pgk1 (ILMN_60123, inosine after stroke): 5869
Fold-Induction Stroke, ino vs. cntrl, Ndufa8 (ILMN_60239): 0.57
Signal Intensity, Ndufa8 (ILMN_60239, inosine after stroke): 572
Fold-Induction Stroke, ino vs. cntrl, Kbtbd9 (ILMN_60252): 0.68
Signal Intensity, Kbtbd9 (ILMN_60252, inosine after stroke): 1263
Fold-Induction Stroke, ino vs. cntrl, LOC309016 (ILMN_60417): 0.68
Signal Intensity, LOC309016 (ILMN_60417, inosine after stroke): 554
Fold-Induction Stroke, ino vs. cntrl, Bckdhb (ILMN_60448): 0.61
Signal Intensity, Bckdhb (ILMN_60448, inosine after stroke): 281
Fold-Induction Stroke, ino vs. cntrl, Rbm18 (ILMN_60511): 0.62
Signal Intensity, Rbm18 (ILMN_60511, inosine after stroke): 301
Fold-Induction Stroke, ino vs. cntrl, LOC360618 (ILMN_60542): 0.69
Signal Intensity, LOC360618 (ILMN_60542, inosine after stroke): 1021
Fold-Induction Stroke, ino vs. cntrl, Mg87 (ILMN_60584): 0.80
Signal Intensity, Mg87 (ILMN_60584, inosine after stroke): 1251
Fold-Induction Stroke, ino vs. cntrl, Ndfip1 (ILMN_60653): 0.80
Signal Intensity, Ndfip1 (ILMN_60653, inosine after stroke): 362
Fold-induction CSMNs: Rhoc (ILMN_61063, over and above inosine's effect of decreasing stroke-induced changes): 2.02 fold
Fold-Induction Stroke, ino vs. cntrl, Pja2 (ILMN_61213): 0.58
Signal Intensity, Pja2 (ILMN_61213, inosine after stroke): 2360
Fold-Induction Stroke, ino vs. cntrl, Khdrbs3 (ILMN_61216): 0.57
Signal Intensity, Khdrbs3 (ILMN_61216, inosine after stroke): 2045
Fold-Induction Stroke, ino vs. cntrl, Dlgap1 (ILMN_61367): 0.68
Signal Intensity, Dlgap1 (ILMN_61367, inosine after stroke): 1249
Fold-Induction, complement cascade gene C1qb (ILMN_61448, LCM-captured CSMNs contralateral a stroke): 1.84 fold
Fold-Induction Stroke, ino vs. cntrl, LOC500629 (ILMN_61521): 0.59
